Measurements published in patent US6254882A, “Methods and compositions for treating pulmonary disorders using optically pure (S)--salmeterol” (Sepracor Inc., priority 1997, dated 2001).

Key:
[1] = tested on: isolated guinea pig tracheal strips; test: Relaxation of histamine-contracted isolated guinea pig tracheal strips; design: species or system guinea pig (male Hartley); settings: for EC50: Cavia porcellus, % of maximum relaxation by 1 mM papaverine, tested up to 1000 nM, r(log-lin) = 0.9453-0.9968, (S)-salmeterol extrapolated from three data points, read-out: EC50 Tracheal Relaxation, determined by linear regression of percent maximum response
[2] = tested on: isolated guinea pig right atria; test: Chronotropic effect on isolated guinea pig right atria (atrial rate); design: species or system guinea pig (male Hartley); settings: for EC50: Cavia porcellus, % of rate produced by 1 μM forskolin, tested up to 1000 nM, r(log-lin) = 0.9453-0.9968, read-out: EC50 Atrial Rate, determined by linear regression of percent maximum response
[3] = as described in the PDR, even by inhalation; cited from earlier work
human β1 AR = human β1 AR (Homo sapiens, UniProt P08588); test: Competitive binding to human β1-adrenergic receptor ([125I]iodopindolol, Sf9 cell membranes); settings: radioligand [125I]iodopindolol; read-out: Kd for radioligand binding to human β1 ARs
human β2 AR = human β2 AR (Homo sapiens, UniProt P07550); test: Competitive binding to human β2-adrenergic receptor ([125I]iodopindolol, Sf9 cell membranes); settings: radioligand [125I]iodopindolol; read-out: Kd for radioligand binding to human β2 ARs
human β2 AR, sequence (P07550 whole entry): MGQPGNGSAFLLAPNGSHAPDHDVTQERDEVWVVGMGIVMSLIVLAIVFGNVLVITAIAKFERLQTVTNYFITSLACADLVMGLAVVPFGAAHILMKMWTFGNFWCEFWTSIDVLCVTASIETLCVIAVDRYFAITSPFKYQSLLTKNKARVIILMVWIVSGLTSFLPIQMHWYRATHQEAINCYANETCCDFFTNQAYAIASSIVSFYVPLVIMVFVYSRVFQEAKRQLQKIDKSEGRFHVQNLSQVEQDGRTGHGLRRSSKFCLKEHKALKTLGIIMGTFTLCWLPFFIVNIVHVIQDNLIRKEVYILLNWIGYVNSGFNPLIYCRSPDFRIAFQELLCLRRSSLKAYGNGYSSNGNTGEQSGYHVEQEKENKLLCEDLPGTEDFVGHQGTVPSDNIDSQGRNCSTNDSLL

human β1 AR, sequence (P08588 whole entry): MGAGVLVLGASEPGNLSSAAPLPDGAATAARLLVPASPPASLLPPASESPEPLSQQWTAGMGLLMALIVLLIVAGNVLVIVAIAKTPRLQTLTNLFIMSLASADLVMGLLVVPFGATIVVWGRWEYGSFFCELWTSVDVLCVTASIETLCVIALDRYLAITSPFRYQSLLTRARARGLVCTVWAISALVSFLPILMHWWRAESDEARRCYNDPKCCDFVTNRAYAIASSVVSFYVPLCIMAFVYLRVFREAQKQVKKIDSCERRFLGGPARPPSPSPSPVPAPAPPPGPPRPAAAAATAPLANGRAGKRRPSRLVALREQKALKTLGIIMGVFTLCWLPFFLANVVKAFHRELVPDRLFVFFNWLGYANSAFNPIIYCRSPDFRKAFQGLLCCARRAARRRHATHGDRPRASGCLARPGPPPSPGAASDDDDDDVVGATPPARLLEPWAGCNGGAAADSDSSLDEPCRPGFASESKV

Row | Compound | EC50 [1] [nM] | EC50 [2] [nM] | further results
1 | CC(C)(C)NCC(O)c1ccc(O)c(CO)c1 (racemic) [(RS)-Albuterol] | 673 | 272 | 
2 | OCc1cc(C(O)CNCCCCCCOCCCCc2ccccc2)ccc1O (racemic) [(RS)-Salmeterol, 4-hydroxy-α^1 - [[[6(4-phenylbutoxy)-hexyl]amino]methyl]-1,3-benzenedimethanol] | 273 | 3520 | adverse effects [3]: tachycardia, palpitations, urticaria, angioedema, rash, bronchospasms, headache, tremors, nervousness, and paradoxical bronchospasms
3 | CC(C)(C)NC[C@H](O)c1ccc(O)c(CO)c1 [(R)-Albuterol] | 747 | 177 | potency for tracheal relaxation relative to (S)-salmeterol ([1]; relative to (S)-salmeterol): approximately four
4 | OCc1cc([C@@H](O)CNCCCCCCOCCCCc2ccccc2)ccc1O [(R)-Salmeterol] | 149 | 1730 | 
5 | CC(C)(C)NC[C@@H](O)c1ccc(O)c(CO)c1 [(S)-Albuterol] | 100000 | > 10000 | 
6 | OCc1cc([C@H](O)CNCCCCCCOCCCCc2ccccc2)ccc1O [(S)-Salmeterol, S enantiomer of 4-hydroxy-α^1 - [[[6(4-phenylbutoxy)-hexyl]amino]methyl]-1,3-benzenedimethanol] | 3150 |  | potency for tracheal relaxation compared with (S,S)-formoterol ([1]; extrapolated from three data points): equivalent in potency; efficacy with respect to tracheal relaxation ([1]; in words): full efficacy could be achieved; potency for tracheal relaxation compared with racemic formoterol or its (R,R)-enantiomer ([1]; in words): significantly less potent; effect on atrial rate compared with vehicle control ([2]; in words): essentially the same effect on atrial rate as the vehicle control
7 | CC(C)NC[C@H](O)COc1cccc2[nH]cc(I)c12 [[^125 l] iodopindolol] |  |  | Kd (human β1 AR): 2 nM; Kd (human β2 AR): 0.02 nM
8 | C=C[C@@]1(C)CC(=O)[C@]2(O)[C@@]3(C)[C@@H](O)CCC(C)(C)[C@@H]3[C@H](O)[C@H](OC(C)=O)[C@@]2(C)O1 [forskolin] |  |  | rate of spontaneous contraction of right atria ([2]; 1 μM forskolin, basal roughly 140-170 bpm): 195-250 bpm
9 | COc1ccc(Cc2nccc3cc(OC)c(OC)cc23)cc1OC [papaverine] |  |  | relaxation of histamine-contracted tracheal strips ([1]; 1 mM papaverine): complete relaxation
